In PubChem BioAssay (NCI):
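Five concentrations, 48 hours, 96-well plates. Definition used: TGI = concentration required for complete inhibition of growth.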

Experiments:
Assay in all cases: growth of human tumour cells (NCI), 48 h
A549 NSCLC = test system: A549 NSCLC
U251 CNS = test system: U251 CNS
DU-145 prostate = test system: DU-145 prostate
SNB-19 CNS = test system: SNB-19 CNS
LOX IMVI melanoma = test system: LOX IMVI melanoma
T-47D breast = test system: T-47D breast
HCT-15 colon = test system: HCT-15 colon
HOP-62 NSCLC = test system: HOP-62 NSCLC
NCI-H460 lung = test system: NCI-H460 lung
SK-MEL-2 melanoma = test system: SK-MEL-2 melanoma
CAKI-1 renal = test system: CAKI-1 renal
CCRF-CEM leukemia = test system: CCRF-CEM leukemia
HCT-116 colon = test system: HCT-116 colon
HT29 colon = test system: HT29 colon
PC-3 prostate = test system: PC-3 prostate
ACHN renal = test system: ACHN renal
UACC-62 melanoma = test system: UACC-62 melanoma
UO-31 renal = test system: UO-31 renal
MDA-MB-231 breast = test system: MDA-MB-231 breast
K-562 leukemia = test system: K-562 leukemia
NCI-H23 lung = test system: NCI-H23 lung
A498 renal = test system: A498 renal
HL-60(TB) leukemia = test system: HL-60(TB) leukemia
RXF 393 renal = test system: RXF 393 renal
EKVX NSCLC = test system: EKVX NSCLC
786-0 renal = test system: 786-0 renal
HCC-2998 colon = test system: HCC-2998 colon
UACC-257 melanoma = test system: UACC-257 melanoma
SF-268 CNS = test system: SF-268 CNS
MOLT-4 leukemia = test system: MOLT-4 leukemia
RPMI-8226 leukemia = test system: RPMI-8226 leukemia
SK-OV-3 ovarian = test system: SK-OV-3 ovarian
SN12C renal = test system: SN12C renal
SF-539 CNS = test system: SF-539 CNS
OVCAR-8 ovarian = test system: OVCAR-8 ovarian
NCI/ADR-RES ovarian = test system: NCI/ADR-RES ovarian
TK-10 renal = test system: TK-10 renal
OVCAR-4 ovarian = test system: OVCAR-4 ovarian
MDA-MB-435 = test system: MDA-MB-435
OVCAR-5 ovarian = test system: OVCAR-5 ovarian
SNB-75 CNS = test system: SNB-75 CNS
SF-295 CNS = test system: SF-295 CNS
COLO 205 colon = test system: COLO 205 colon
BT-549 breast = test system: BT-549 breast
MDA-N = test system: MDA-N
OVCAR-3 ovarian = test system: OVCAR-3 ovarian
MALME-3M melanoma = test system: MALME-3M melanoma
KM12 colon = test system: KM12 colon
SK-MEL-28 melanoma = test system: SK-MEL-28 melanoma
NCI-H226 lung = test system: NCI-H226 lung
HS 578T breast = test system: HS 578T breast
HOP-92 NSCLC = test system: HOP-92 NSCLC
SK-MEL-5 melanoma = test system: SK-MEL-5 melanoma
MCF7 breast = test system: MCF7 breast
SW-620 colon = test system: SW-620 colon
IGROV1 ovarian = test system: IGROV1 ovarian
M14 melanoma = test system: M14 melanoma
NCI-H522 lung = test system: NCI-H522 lung

What does the source list for `COc1ccccc1/C(=N\OCCC(=O)O)c1cccs1`?
TGI (A549 NSCLC): > 100 µM; TGI (U251 CNS): > 100 µM; TGI (DU-145 prostate): > 100 µM; TGI (SNB-19 CNS): > 100 µM; TGI (LOX IMVI melanoma): > 100 µM; TGI (T-47D breast): > 100 µM; TGI (HCT-15 colon): > 100 µM; TGI (HOP-62 NSCLC): > 100 µM; TGI (NCI-H460 lung): > 100 µM; TGI (SK-MEL-2 melanoma): > 100 µM; TGI (CAKI-1 renal): > 100 µM; TGI (CCRF-CEM leukemia): > 100 µM; TGI (HCT-116 colon): > 100 µM; TGI (HT29 colon): > 100 µM; TGI (PC-3 prostate): > 100 µM; TGI (ACHN renal): > 100 µM; TGI (UACC-62 melanoma): > 100 µM; TGI (UO-31 renal): > 100 µM; TGI (MDA-MB-231 breast): > 100 µM; TGI (K-562 leukemia): > 100 µM; TGI (NCI-H23 lung): > 100 µM; TGI (A498 renal): > 100 µM; TGI (HL-60(TB) leukemia): > 100 µM; TGI (RXF 393 renal): > 100 µM; TGI (EKVX NSCLC): > 100 µM; TGI (786-0 renal): > 100 µM; TGI (HCC-2998 colon): > 100 µM; TGI (UACC-257 melanoma): > 100 µM; TGI (SF-268 CNS): > 100 µM; TGI (MOLT-4 leukemia): > 100 µM; TGI (RPMI-8226 leukemia): > 100 µM; TGI (SK-OV-3 ovarian): > 100 µM; TGI (SN12C renal): > 100 µM; TGI (SF-539 CNS): > 100 µM; TGI (OVCAR-8 ovarian): > 100 µM; TGI (NCI/ADR-RES ovarian): > 100 µM; TGI (TK-10 renal): > 100 µM; TGI (OVCAR-4 ovarian): > 100 µM; TGI (MDA-MB-435): > 100 µM; TGI (OVCAR-5 ovarian): > 100 µM; TGI (SNB-75 CNS): > 100 µM; TGI (SF-295 CNS): > 100 µM; TGI (COLO 205 colon): > 100 µM; TGI (BT-549 breast): > 100 µM; TGI (MDA-N): > 100 µM; TGI (OVCAR-3 ovarian): > 100 µM; TGI (MALME-3M melanoma): > 100 µM; TGI (KM12 colon): > 100 µM; TGI (SK-MEL-28 melanoma): > 100 µM; TGI (NCI-H226 lung): > 100 µM; TGI (HS 578T breast): > 100 µM; TGI (HOP-92 NSCLC): > 100 µM; TGI (SK-MEL-5 melanoma): > 100 µM; TGI (MCF7 breast): > 100 µM; TGI (SW-620 colon): > 100 µM

Which results are given for `Cc1cc(C)n(C(=C(C(Cl)=C(Cl)Cl)[N+](=O)[O-])n2nc(C)cc2C)n1`?
TGI (A549 NSCLC): 11.4 µM; TGI (U251 CNS): 11.7 µM; TGI (DU-145 prostate): 14.9 µM; TGI (SNB-19 CNS): 16.2 µM; TGI (LOX IMVI melanoma): 4.69 µM; TGI (T-47D breast): 23.1 µM; TGI (HCT-15 colon): 11.4 µM; TGI (HOP-62 NSCLC): 19.5 µM; TGI (NCI-H460 lung): 12.7 µM; TGI (SK-MEL-2 melanoma): 4.18 µM; TGI (CAKI-1 renal): 8.38 µM; TGI (CCRF-CEM leukemia): 5.8 µM; TGI (HCT-116 colon): 14.5 µM; TGI (HT29 colon): 11.5 µM; TGI (PC-3 prostate): 13.6 µM; TGI (ACHN renal): 8.8 µM; TGI (UACC-62 melanoma): 14.9 µM; TGI (UO-31 renal): 11.3 µM; TGI (MDA-MB-231 breast): 27.8 µM; TGI (K-562 leukemia): 5 µM; TGI (NCI-H23 lung): 12.8 µM; TGI (A498 renal): 8.59 µM; TGI (HL-60(TB) leukemia): 3.92 µM; TGI (RXF 393 renal): 16 µM; TGI (EKVX NSCLC): 6.27 µM; TGI (HCC-2998 colon): 12.5 µM; TGI (UACC-257 melanoma): 11.5 µM; TGI (SF-268 CNS): 16.7 µM; TGI (MOLT-4 leukemia): 5 µM; TGI (SK-OV-3 ovarian): 8.69 µM; TGI (SN12C renal): 15.9 µM; TGI (SF-539 CNS): 16.4 µM; TGI (OVCAR-8 ovarian): 9.22 µM; TGI (NCI/ADR-RES ovarian): 20.5 µM; TGI (IGROV1 ovarian): 14.9 µM; TGI (TK-10 renal): 9.36 µM; TGI (OVCAR-4 ovarian): 7.47 µM; TGI (MDA-MB-435): 5.56 µM; TGI (OVCAR-5 ovarian): 22.8 µM; TGI (SNB-75 CNS): 18.1 µM; TGI (SF-295 CNS): 14.8 µM; TGI (COLO 205 colon): 3.76 µM; TGI (BT-549 breast): 16.3 µM; TGI (MDA-N): 13.8 µM; TGI (OVCAR-3 ovarian): 10.4 µM; TGI (MALME-3M melanoma): 7.86 µM; TGI (KM12 colon): 13.9 µM; TGI (SK-MEL-28 melanoma): 19.7 µM; TGI (M14 melanoma): 15.5 µM; TGI (NCI-H522 lung): 6.74 µM; TGI (NCI-H226 lung): 26 µM; TGI (HS 578T breast): 20.6 µM; TGI (HOP-92 NSCLC): 6.78 µM; TGI (SK-MEL-5 melanoma): 3.88 µM; TGI (MCF7 breast): 8.2 µM; TGI (SW-620 colon): 18.2 µM
